One assay has as its system PC3 cells. Put plainly: PC3 growth inhibition (Cell-titer glo, 72 hours). Format: cell-based. As to conditions: Homo sapiens, PC-3; compound concentration 1.667 μM; PC3 cells, 72 hours, Cell-titer glo; read-out: Percent Inhibition (PC3 growth inhibition). Summed up: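 PC3 cells in RPMI1640 seeded overnight at 37 °C, 5% CO2, then exposed to compound diluted in AIM serum-free medium for 72 h. Viability by CellTiter-Glo luminescence vs DMSO controls; single-concentration % remaining viability (1 μM or 1.667 μM), or GI50/LD50 from curves.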

The next assay concerns the target hNAMPT protein (Homo sapiens (Human), UniProt P43490). Description: NAMPT enzyme assay (TR-FRET/HTRF, BodiPY ligand, anti 6His-Tb). Format: binding. As to conditions: for pIC50: NAMPT IC50 range class, read-out: IC50; for inhibition at 1 µM: compound concentration 1 μM, read-out: Percent Inhibition. A digest of the protocol: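 TR-FRET binding assay in which His-tagged human NAMPT with anti-6His-Tb is displaced by compound from a BodiPY ligand, incubated 1 h at rt in the dark. Excitation was at 320 nm, with the 520/486 nm emission ratio read. IC50 was fitted from inhibition relative to DMSO controls.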

Each structure is given as a SMILES string. pIC50: −log10 of the molar value.

Sequence of hNAMPT protein (P43490 whole entry): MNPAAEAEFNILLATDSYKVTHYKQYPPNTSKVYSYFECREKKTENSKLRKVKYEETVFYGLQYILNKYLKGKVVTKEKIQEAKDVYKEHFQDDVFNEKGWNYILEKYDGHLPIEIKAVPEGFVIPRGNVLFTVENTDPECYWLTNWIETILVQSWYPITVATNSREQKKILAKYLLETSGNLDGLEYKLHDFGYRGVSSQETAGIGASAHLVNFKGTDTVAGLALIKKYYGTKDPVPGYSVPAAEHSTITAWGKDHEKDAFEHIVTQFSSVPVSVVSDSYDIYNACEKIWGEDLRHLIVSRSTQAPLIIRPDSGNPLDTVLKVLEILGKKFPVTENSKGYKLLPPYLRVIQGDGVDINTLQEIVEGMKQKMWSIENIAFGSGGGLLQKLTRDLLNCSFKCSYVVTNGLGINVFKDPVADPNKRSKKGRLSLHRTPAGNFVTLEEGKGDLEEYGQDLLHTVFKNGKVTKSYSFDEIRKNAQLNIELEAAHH

On to `O=C(NCCCc1ncc[nH]1)c1ccc2nc(O[C@H]3CCOC3)c(-c3ccc(Cl)cc3)nc2c1` [Compound I-360, 3-(4-chlorophenyl)-N-[3-(1H-imidazol-2-yl)propyl]-2-[(3S)-tetrahydrofuran-3-yloxy]quinoxaline-6-carboxamide], for which the inhibition (as a rule, the share of the control response that was lost under treatment) at 1.667 µM with PC3 cells is 2%. Besides, at hNAMPT protein, the pIC50 (commonly −log10 of the IC50, conventionally taken in molar units) is more than 7.00 and the inhibition at 1 µM is more than 99%.
With `O=C(NCCCc1ncc[nH]1)c1ccc2nc(-c3ccc(F)cc3)c(-c3ccc(Cl)cc3)nc2c1` [Compound I-361, 3-(4-chlorophenyl)-2-(4-fluorophenyl)-N-[3-(1H-imidazol-2-yl)propyl]quinoxaline-6-carboxamide], the inhibition at 1.667 µM with PC3 cells was 1%. For the same molecule, at hNAMPT protein, the pIC50 was more than 7.00 and the inhibition at 1 µM amounted to 98%.
For the molecule `Nc1ccc(CCCNC(=O)c2ccc3nc(N4CCOCC4)c(-c4ccc(F)cc4)nc3c2)cn1` [Compound I-362, N-[3-(6-aminopyridin-3-yl)propyl]-3-(4-fluorophenyl)-2-(morpholin-4-yl)quinoxaline-6-carboxamide], in the assay on PC3 cells, the inhibition at 1.667 µM is 2%. Besides, on hNAMPT protein, the pIC50 was 6.30 to 7.00 and the inhibition at 1 µM came to 74%.
For the molecule `N#Cc1ccc(-c2nc3cc(C(=O)NCCCc4ncc[nH]4)ccc3nc2-c2ccc(F)cc2)s1` [Compound I-363, 3-(5-cyano-2-thienyl)-2-(4-fluorophenyl)-N-[3-(1H-imidazol-2-yl)propyl]quinoxaline-6-carboxamide], in the assay on PC3 cells, the inhibition at 1.667 µM turned out to be 3%. Moreover, on hNAMPT protein, the pIC50 is 6.30 to 7.00 and the inhibition at 1 µM stood at 78%.
For `O=C(NCCCc1ncc[nH]1)c1ccc2nc(OCc3ccc(Cl)cc3)c(-c3ccc(F)cc3)nc2c1` [Compound I-364, 2-[(4-chlorobenzyl)oxy]-3-(4-fluorophenyl)-N-[3-(1H-imidazol-2-yl)propyl]quinoxaline-6-carboxamide], in that order: 4%, 6.30 to 7.00 and 73%.
The corresponding values for `Cc1ccc(Cl)c(-c2nc3cc(C(=O)NCCCc4ncc[nH]4)ccc3nc2-c2ccc(F)cc2)c1` [Compound I-365, 3-(2-chloro-5-methylphenyl)-2-(4-fluorophenyl)-N-[3-(1H-imidazol-2-yl)propyl]quinoxaline-6-carboxamide] are 1%, more than 7.00 and 97%.
For `O=C(NCCCc1ncc[nH]1)c1ccc2nc(C3CCOCC3)c(-c3ccc(F)cc3)nc2c1` [Compound I-366, 3-(4-fluorophenyl)-N-[3-(1H-imidazol-2-yl)propyl]-2-(tetrahydro-2H-pyran-4-yl)quinoxaline-6-carboxamide], in that order: 1%, 6.00 to 6.30 and 53%.
As for `CC(C)Oc1nc2ccc(C(=O)NCc3ccc4nccn4c3)cc2nc1-c1ccc(F)c(F)c1` [Compound I-367, 3-(3,4-Difluorophenyl)-N-(imidazo[1,2-a]pyridin-6-ylmethyl)-2-isopropoxyquinoxaline-6-carboxamide], in the assay on PC3 cells, the inhibition at 1.667 µM was found to be 0%. Moreover, on hNAMPT protein, the pIC50 was 6.00 to 6.30 and the inhibition at 1 µM is 50%.
Consider `O=C(NCCCc1ncc[nH]1)c1ccc2nc(-c3ccc(F)cc3)c(-c3ccc(F)s3)nc2c1` [Compound I-368, 2-(4-fluorophenyl)-3-(5-fluoro-2-thienyl)-N-[3-(1H-imidazol-2-yl)propyl]quinoxaline-6-carboxamide], for which the inhibition at 1.667 µM in the assay on PC3 cells is 1%. In addition, at hNAMPT protein, the pIC50 is more than 7.00 and the inhibition at 1 µM was more than 99%.
The corresponding values for `O=C(NCCCc1ncc[nH]1)c1ccc2nc(-c3ccc(F)cc3)c(-c3ccc(Cl)c(C(F)(F)F)c3)nc2c1` [Compound I-369, 3-[4-chloro-3-(trifluoromethyl)phenyl]-2-(4-fluorophenyl)-N-[3-(1H-imidazol-2-yl)propyl]quinoxaline-6-carboxamide] are 2%, more than 7.00 and 93%.
The corresponding values for `CC(=O)c1ccc(-c2nc3cc(C(=O)NCCCc4ncc[nH]4)ccc3nc2-c2ccc(F)cc2)s1` [Compound I-370, 3-(5-acetyl-2-thienyl)-2-(4-fluorophenyl)-N-[3-(1H-imidazol-2-yl)propyl]quinoxaline-6-carboxamide] are 3%, 6.00 to 6.30 and 64%.
The corresponding values for `CCCOc1nc2ccc(C(=O)NCCCc3ncc[nH]3)cc2nc1-c1ccc(F)cc1` [Compound I-371, 3-(4-fluorophenyl)-N-[3-(1H-imidazol-2-yl)propyl]-2-propoxyquinoxaline-6-carboxamide] are 3%, more than 7.00 and 97%.
Regarding `O=C(NCCCc1ncc[nH]1)c1ccc2nc(O[C@@H]3CCOC3)c(-c3ccc(F)cc3)nc2c1` [Compound I-372, 3-(4-fluorophenyl)-N-[3-(1H-imidazol-2-yl)propyl]-2-[(3R)-tetrahydrofuran-3-yloxy]quinoxaline-6-carboxamide], in the assay with PC3 cells, the inhibition at 1.667 µM is 2%. At hNAMPT protein, the pIC50 is more than 7.00 and the inhibition at 1 µM is more than 99%.
For the molecule `O=C(NCCCc1ncc[nH]1)c1ccc2nc(-c3ccc(F)cc3)c(-c3ccc(F)cc3F)nc2c1` [Compound I-373, 3-(2,4-difluorophenyl)-2-(4-fluorophenyl)-N-[3-(1H-imidazol-2-yl)propyl]quinoxaline-6-carboxamide], the inhibition at 1.667 µM in the assay on PC3 cells was found to be 2%. On hNAMPT protein, the pIC50 was 6.30 to 7.00 and the inhibition at 1 µM stood at 84%.
For `O=C(NCCCc1ncc[nH]1)c1ccc2nc(-n3ccnn3)c(-c3ccc(F)cc3)nc2c1` [Compound I-374, 3-(4-fluorophenyl)-N-[3-(1H-imidazol-2-yl)propyl]-2-(1H-1,2,3-triazol-1-yl)quinoxaline-6-carboxamide], in that order: 3%, 6.30 to 7.00 and 75%.
The corresponding values for `CC(C)Sc1nc2ccc(C(=O)NCCCc3ncc[nH]3)cc2nc1-c1ccc(F)cc1` [Compound I-375, 3-(4-Fluorophenyl)-N-[3-(1H-imidazol-2-yl)propyl]-2-(isopropylsulfanyl)quinoxaline-6-carboxamide] are 2%, 6.30 to 7.00 and 80%.
For `O=C(NCCc1ncc[nH]1)c1ccc2nc(-c3ccc(F)cc3)c(-c3cccc(Cl)c3)nc2c1` [Compound I-376, 3-(3-chlorophenyl)-2-(4-fluorophenyl)-N-[2-(1H-imidazol-2-yl)ethyl]quinoxaline-6-carboxamide], in that order: 52%, 6.00 to 6.30 and 30%.
Turning to `N#Cc1cc(-c2nc3cc(C(=O)NCCCc4ncc[nH]4)ccc3nc2-c2ccc(F)cc2)ccc1Cl` [Compound I-377, 3-(4-chloro-3-cyanophenyl)-2-(4-fluorophenyl)-N-[3-(1H-imidazol-2-yl)propyl]quinoxaline-6-carboxamide], in the assay with PC3 cells, the inhibition at 1.667 µM amounted to 2%. Further, at hNAMPT protein, the pIC50 is 6.30 to 7.00 and the inhibition at 1 µM was found to be 85%.

The record behind these values is patent US10144742B2 (Millennium Pharmaceuticals, Inc., priority 2014, dated 2018).
